# Test results taken from patent US4224371A, “Sodium 3-acetoxylmethyl-7-[2-(2-amino-4-thiazolyl)-2-methoxyimino-acetamido]-ce ph-3-eme-4-carboxylate” (priority 1977, dated 1980).
# Where a name gives a salt, the structure may show the parent alone. Read-outs that look alike come from different tables or passages of the source.
# Assays:
# [1] = Affinity to atmospheric humidity / hygroscopicity; assay type: physicochemical; conditions: solid
# [2] = Stability test, percent of activity remaining on storage; assay type: physicochemical; conditions: nonsterile air; for % of activity after storage: time 0, closed flask
# Procedure: Product A was placed in a flask containing nonsterile air and it was closed with a rubber stopper. The flask was stored at the temperatures for the times indicated in the following table and the percent of activity remaining was determined.
# Proteus Vulgaris Co 1 = test: In vitro antibacterial activity, liquid medium dilution (MIC); assay type: cell-based; conditions: 37° C., read-out: minimum inhibiting concentration (MIC)
# Procedure: (§1) The method used was a dilution of a liquid medium where a series of tubes received the same quantity of a sterile nutritive media and increasing doses of the test compounds were placed therein. Then each tube was seeded with a bacterial strain and was incubated for 24 to 48 hours at 37° C. in an oven. The increasing inhibition was determined by transillumination to determine the minimum inhibiting concentration (MIC in μg/ml) and the results are reported in the following Tables.
# (§2) Product A is the crystalline D form of the syn isomer of sodium 3-acetoxymethyl-7-[2-(2-amino-4-thiazolyl)-2-methoxyimino-acetamido]-ceph- 3-eme-4-carboxylate.
# [3] = test system: Klebsiella Pneumoniae COc 229; test: as above; assay type: cell-based; conditions: 37° C., read-out: minimum inhibiting concentration (MIC)
# Procedure: as §1, §2
# Proteus Mirabilis 1816 = test: as above; assay type: cell-based; conditions: 37° C., read-out: minimum inhibiting concentration (MIC)
# Procedure: as §1, §2
# Proteus Vulgaris Co 4 = test: as above; assay type: cell-based; conditions: 37° C., read-out: minimum inhibiting concentration (MIC)
# Procedure: as §1, §2
# [4] = test system: Escherichia Coli T 55 4376; test: as above; assay type: cell-based; conditions: 37° C., read-out: minimum inhibiting concentration (MIC)
# Procedure: as §1, §2
# [5] = test system: Salmonella typhimurium 6478; test: as above; assay type: cell-based; conditions: Salmonella enterica, 37° C., read-out: minimum inhibiting concentration (MIC)
# Procedure: as §1, §2
# Escherichia Coli 7881 = test: as above; assay type: cell-based; conditions: 37° C., read-out: minimum inhibiting concentration (MIC)
# Procedure: as §1, §2
# Proteus Mirabilis 9048 = test: as above; assay type: cell-based; conditions: 37° C., read-out: minimum inhibiting concentration (MIC)
# Procedure: as §1, §2
# [6] = test system: Staphylococcus aureus I H 47; test: as above; assay type: cell-based; conditions: 37° C., read-out: minimum inhibiting concentration (MIC)
# Procedure: as §1, §2
# Proteus Mirabilis 3477 = test: as above; assay type: cell-based; conditions: 37° C., read-out: minimum inhibiting concentration (MIC)
# Procedure: as §1, §2
# Escherichia Coli A 223 = test: as above; assay type: cell-based; conditions: 37° C., read-out: minimum inhibiting concentration (MIC)
# Procedure: as §1, §2
# Proteus Vulgaris Du 27 = test: as above; assay type: cell-based; conditions: 37° C., read-out: minimum inhibiting concentration (MIC)
# Procedure: as §1, §2
# [7] = test system: Escherichia Coli T 55 4076; test: as above; assay type: cell-based; conditions: 37° C., read-out: minimum inhibiting concentration (MIC)
# Procedure: as §1, §2
# [8] = test system: Staphylococcus aureus I H 005; test: as above; assay type: cell-based; conditions: 37° C., read-out: minimum inhibiting concentration (MIC)
# Procedure: as §1, §2
# [9] = test system: Staphylococcus aureus I H 38; test: as above; assay type: cell-based; conditions: 37° C., read-out: minimum inhibiting concentration (MIC)
# Procedure: as §1, §2
# [10] = test system: Staphylococcus aureus I H 41; test: as above; assay type: cell-based; conditions: 37° C., read-out: minimum inhibiting concentration (MIC)
# Procedure: as §1, §2
# [11] = test system: Klebsiella Pneumoniae COc 238; test: as above; assay type: cell-based; conditions: 37° C., read-out: minimum inhibiting concentration (MIC)
# Procedure: as §1, §2
compound,measurement,setting,value
"CO/N=C(\C(=O)NC1C(=O)N2C(C(=O)O)=C(COC(C)=O)CSC12)c1csc(N)n1 (stereo not drawn) [Product A, sodium 3-acetoxymethyl-7-[2-(2-amino-4-thiazolyl)-2-methoxyimino-acetamido]-ceph-3-eme-4-carboxylate]",affinity to atmospheric humidity / hygroscopicity,[1]; listed as crystalline D form,low affinity to atmospheric humidity
same,remaining at 1080 h,"[2]; 50° C., 1.5 months, closed flask, read-out: % of activity after storage",92.5%
same,remaining at 2160 h,"[2]; 50° C., 3 months, closed flask, read-out: % of activity after storage",92%
same,% of activity after storage,[2]; 50° C.,97%
same,remaining at 336 h,"[2]; 80° C., 2 weeks, closed flask, read-out: % of activity after storage",81.5%
same,remaining at 160 h,"[2]; 80° C., 160 hours, closed flask, read-out: % of activity after storage",89.5%
same,% of activity after storage,[2]; 80° C.,97%
same,MIC,Proteus Vulgaris Co 1; 24 H,0.2 µg/mL
same,MIC,Proteus Vulgaris Co 1; 48 H,0.4 µg/mL
same,MIC,[3]; 24 H,0.1 µg/mL
same,MIC,[3]; 48 H,0.1 µg/mL
same,MIC,Proteus Mirabilis 1816; 24 H,0.05 µg/mL
same,MIC,Proteus Mirabilis 1816; 48 H,0.05 µg/mL
same,MIC,Proteus Vulgaris Co 4; 24 H,0.6 µg/mL
same,MIC,Proteus Vulgaris Co 4; 48 H,0.6 µg/mL
same,MIC,"[4]; COLIT554376, 24 H",0.1 µg/mL
same,MIC,"[4]; COLIT554376, 48 H",0.1 µg/mL
same,MIC,[5]; 24 H,0.1 µg/mL
same,MIC,[5]; 48 H,0.1 µg/mL
same,MIC,"Escherichia Coli 7881; COLI7881, 24 H",0.1 µg/mL
same,MIC,"Escherichia Coli 7881; COLI7881, 48 H",0.1 µg/mL
same,MIC,Proteus Mirabilis 9048; 24 H,0.02 µg/mL
same,MIC,Proteus Mirabilis 9048; 48 H,0.02 µg/mL
same,MIC,"[6]; IH47, 24 H",2 µg/mL
same,MIC,"[6]; IH47, 48 H",2 µg/mL
same,MIC,Proteus Mirabilis 3477; 24 H,0.05 µg/mL
same,MIC,Proteus Mirabilis 3477; 48 H,0.05 µg/mL
same,MIC,"Escherichia Coli A 223; COLIA223, 24 H",0.1 µg/mL
same,MIC,"Escherichia Coli A 223; COLIA223, 48 H",0.1 µg/mL
same,MIC,Proteus Vulgaris Du 27; 24 H,≤ 0.02 µg/mL
same,MIC,Proteus Vulgaris Du 27; 48 H,≤ 0.02 µg/mL
same,MIC,"[7]; COLIT554076, 24 H",0.05 µg/mL
same,MIC,"[7]; COLIT554076, 48 H",0.05 µg/mL
same,MIC,"[8]; IH005, 24 H",2 µg/mL
same,MIC,"[8]; IH005, 48 H",3 µg/mL
same,MIC,"[9]; IH38, 24 H",1 µg/mL
same,MIC,"[9]; IH38, 48 H",2 µg/mL
same,MIC,"[10]; IH41, 24 H",1 µg/mL
same,MIC,"[10]; IH41, 48 H",2 µg/mL
same,MIC,[11]; 24 H,0.2 µg/mL
same,MIC,[11]; 48 H,0.2 µg/mL
"CO/N=C(\C(=O)NC1C(=O)N2C(C(=O)O)=C(COC(C)=O)CSC12)c1csc(N)n1 (stereo not drawn) [sodium salt not containing methanol, sodium 3-acetoxymethyl-7-[2-(2-amino-4-thiazolyl)-2-methoxyimino-acetamido]-ceph-3-eme-4-carboxylate]",affinity to atmospheric humidity / hygroscopicity,[1],hygroscopic
